Reference: US20180318300A1, “TREATMENT OF AUTOIMMUNE DISEASE” (MingSight Pharmaceuticals, Inc., priority 2015, published 2018)
Marks after values point to notes of the source that are not given here.

Tests used:
[1] = test system: experimental autoimmune encephalitis (EAE) model; test: Experimental autoimmune encephalitis (EAE) model in Lewis rats; assay type: in vivo; settings: for EAE incidence (%): from Day 8
Method: Compound A was tested in the experimental autoimmune encephalitis (EAE) model in Lewis rats. EAE was induced by MBP69-88/CFA immunization and pertussis toxin injection in Lewis rats (Hashim, et al., 1986, J Neurosci Res.; 16(3):467-78). Compound A was prepared as an oral suspension and dosed orally, twice per day (BID) at three doses, 7.5 and 15 and 30 mg/kg for total daily doses of 15, 30 and 60 mg/kg. The efficacy was compared to animals that received the positive control FTY720 (also known as fingolimod; a compound approved for use in humans) dosed once per day at a dose of 0.5 mg/kg.

[2] = biological target: Human PKC delta (Homo sapiens, UniProt Q05655); test: In vitro PKC inhibition assay, PKC delta; assay type: biochemical
Excerpt: (§1) The methods for these determinations have been described (Grant, et al. 2010, Eur J Pharmacol. 627:16-25).

[3] = treatment of increased spleen weight; assay type: in vivo; settings: FIG. 10
[4] = test system: MRL/lpr mouse model of lupus; test: MRL/lpr mouse model of lupus; assay type: in vivo, Female MRL/MpJ-Tnfrsf6lpr/J mice
Method: Compound A was tested for efficacy in the MRL/lpr mouse model of lupus (Shlomchik M J, et al, 1994, J Exp Med 180:1295-1306; Cohen P L and Eisenberg R. A. 1991, Annu Rev Immunol, 9:243-69; Honigberg, L. A., et al., 2010, Proc Natl Acad Sci USA. 107:13075-80). Female MRL/MpJ-Tnfrsf6lpr/J mice of 8-9 weeks of age were used in the study. When the mice reached 12 weeks of age, they were randomized by animal body weight into one of the treatment groups or an untreated control group. Treatments was initiated after randomization and continued for 12 weeks. Starting on study week 1, and then every week thereafter, urine from each animal was tested for proteinuria using the Clinitech Multistick test strip (Bayer). The animals were observed daily for significant clinical signs, moribundity and mortality. Scoring of lymphadenopathy (cervical, brachial, and inguinal) for all animals was recorded every week once lesions become apparent in 50% of the animals in vehicle-treated group.
Compound A was prepared as an oral suspension. Initial dosing was completed at two dose levels, 60 and 90 mg/kg, BID for a total dose of 120 and 180 mg/kg/day. […] Dosing for the final 8 weeks was at 180 and 240 mg/kg/day.

[5] = test system: rat model of encephalitis; test: rat model of encephalitis; assay type: in vivo; settings: FIG. 11
[6] = test system: MRL/lpr lupus model; test: MRL/lpr lupus model; assay type: in vivo
[7] = Separate pharmacokinetics experiments in mice; assay type: in vivo; settings: 60 mg/kg dose, oral suspension
[8] = test system: Interleukin-8 release; test: Interleukin-8 release; assay type: cell-based
Excerpt: as §1

[9] = biological target: PKCβ (Homo sapiens, UniProt P05771); test: pSHP2 (PKCβ cell assay); assay type: cell-based
[10] = test system: experimental autoimmune uveitis; test: Lewis rat model of experimental autoimmune uveitis; assay type: in vivo; settings: oral, once per day, 10 and 20 mg/kg
Method: The efficacy was compared to animals that received the positive control cyclosporine dosed at 25 mg/kg. […] Efficacy in the model was assessed by clinical grading and by assessment of the sections of the eyes prepared for histology at the completion of the experiment.

[11] = 120 mg/kg p.o. BID (60 mg/kg BID for the initial 4 weeks)
[12] = both doses (180 and 240 mg/kg/day for the final 8 weeks)

PKCβ, sequence (P05771 whole entry, species assumed): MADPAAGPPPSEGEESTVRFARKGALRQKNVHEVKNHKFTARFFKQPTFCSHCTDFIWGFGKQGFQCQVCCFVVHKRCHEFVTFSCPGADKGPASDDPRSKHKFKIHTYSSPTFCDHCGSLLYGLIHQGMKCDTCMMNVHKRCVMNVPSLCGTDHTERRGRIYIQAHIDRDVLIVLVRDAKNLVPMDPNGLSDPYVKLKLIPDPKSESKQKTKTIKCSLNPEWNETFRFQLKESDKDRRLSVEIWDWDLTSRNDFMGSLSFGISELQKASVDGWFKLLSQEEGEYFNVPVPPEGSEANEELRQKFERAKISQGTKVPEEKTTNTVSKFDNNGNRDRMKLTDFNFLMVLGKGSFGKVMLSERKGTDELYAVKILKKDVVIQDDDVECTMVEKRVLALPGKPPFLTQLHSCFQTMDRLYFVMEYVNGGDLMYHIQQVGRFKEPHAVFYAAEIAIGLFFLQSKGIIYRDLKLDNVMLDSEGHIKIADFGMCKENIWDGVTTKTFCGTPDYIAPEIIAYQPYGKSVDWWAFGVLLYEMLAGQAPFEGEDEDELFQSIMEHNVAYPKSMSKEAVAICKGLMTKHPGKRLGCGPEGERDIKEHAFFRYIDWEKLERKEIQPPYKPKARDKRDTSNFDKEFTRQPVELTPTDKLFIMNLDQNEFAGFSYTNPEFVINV
Human PKC delta, sequence (Q05655 whole entry): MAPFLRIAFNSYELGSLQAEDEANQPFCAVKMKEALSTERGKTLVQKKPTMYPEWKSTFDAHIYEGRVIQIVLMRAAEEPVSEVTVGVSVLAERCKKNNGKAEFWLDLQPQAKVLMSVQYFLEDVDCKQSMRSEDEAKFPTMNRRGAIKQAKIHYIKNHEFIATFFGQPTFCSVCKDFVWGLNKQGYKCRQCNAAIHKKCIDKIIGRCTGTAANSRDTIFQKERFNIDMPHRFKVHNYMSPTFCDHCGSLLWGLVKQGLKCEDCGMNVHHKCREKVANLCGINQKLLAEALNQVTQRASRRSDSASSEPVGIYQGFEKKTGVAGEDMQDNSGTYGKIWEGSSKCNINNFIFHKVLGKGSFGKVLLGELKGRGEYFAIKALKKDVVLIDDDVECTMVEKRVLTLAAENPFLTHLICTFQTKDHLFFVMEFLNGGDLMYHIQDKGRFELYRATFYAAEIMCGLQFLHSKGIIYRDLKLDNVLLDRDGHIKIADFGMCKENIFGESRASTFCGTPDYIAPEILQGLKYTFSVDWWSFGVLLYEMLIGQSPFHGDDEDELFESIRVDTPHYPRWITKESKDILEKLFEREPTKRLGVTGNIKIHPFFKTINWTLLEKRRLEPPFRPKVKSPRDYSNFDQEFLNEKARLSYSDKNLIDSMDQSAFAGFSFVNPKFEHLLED

In the case of `CCCCCCCCc1ccc(CCC(N)(CO)CO)cc1` [FTY720, fingolimod, reference compound], the “Mean day of onset +/− SEM (sick rats)” value ([1]; 0.5 mg/kg p.o. QD) is reported as 8.0 +/− 0.3, the “Median day of onset (all rats)” value ([1]; 0.5 mg/kg p.o. QD) is reported as 8.0 and the “EAE incidence (%)” value ([1]; 0.5 mg/kg p.o. QD) is reported as 87.5%.
With `Cc1ncc(F)c(Nc2n[nH]c3c2CN(C(=O)N2C[C@@H](C)N(CC4CCOCC4)C[C@@H]2C)C3(C)C)n1` [compound A, 5-{[(2S,5R)-2,5-dimethyl-4-(tetrahydro-2H-pyran-4-ylmethyl)piperazin-1-yl]carbonyl}-N-(5-fluoro-2-methylpyrimidin-4-yl)-6,6-dimethyl-1,4,5,6-tetrahydropyrrolo[3,4-c]pyrazol-3-amine] the “Inhibition of PKC delta (in words)” value [2] was “does not significantly inhibit”, the increased spleen weight [3] was “efficacy” and the BUN/Creatinine ([4]; 90 mg/kg p.o. BID) was 163.9. For the same compound, the Creatinine ([4]; 90 mg/kg p.o. BID) was 0.26, the “BUN” value ([4]; 90 mg/kg p.o. BID, 12 weeks of treatment) was 52.4 mg/dL and the “BUN” value [4, 11] was 29.5 mg/dL. For the same compound, the BUN/Creatinine [4, 11] was 147.7, the Creatinine [4, 11] was 0.20 and the “Lymphadenopathy score (FIG. 8)” value [4, 12] was “reduction”. For the same compound, the “Mean absolute spleen weight (FIG. 9)” value [4, 12] was “reduction”, the “Mean lymph node weight (FIG. 10)” value [4, 12] was “reduction” and the “Protein in the urine (FIG. 7)” value [4, 12] was “significant reduction”. The “efficacy in a rat model of encephalitis” value [5] was “efficacy”, the urine score ([6]; FIG. 7) was “reducing urine score” and the lymphadenopathy ([6]; FIG. 8) was “reducing lymphadenopathy”. For the same compound, the splenomegaly ([6]; FIG. 9) was “reducing splenomegaly”, the “Exposure of compound A in mice” value [7] was “unexpectedly low and insufficient exposure” and the IC50 [8] was 39 nM. The IC50 [9] was 9.8 nM, the “Mean day of onset +/− SEM (sick rats)” value ([1]; 7.5 mg/kg p.o. BID) was 9.0 +/− 0.5 and the “Median day of onset (all rats)” value ([1]; 7.5 mg/kg p.o. BID) was 9.0. The “EAE incidence (%)” value ([1]; 7.5 mg/kg p.o. BID) was 100.0%, the “Mean day of onset +/− SEM (sick rats)” value ([1]; 15 mg/kg p.o. BID) was 8.5 +/− 0.4 and the “Median day of onset (all rats)” value ([1]; 15 mg/kg p.o. BID) was 8.0. For the same compound, the “EAE incidence (%)” value ([1]; 15 mg/kg p.o. BID) was 100.0%, the “Mean day of onset +/− SEM (sick rats)” value ([1]; 30 mg/kg p.o. BID) was 9.0 +/− 0.9 and the “Median day of onset (all rats)” value ([1]; 30 mg/kg p.o. BID) was 13.5. For the same compound, the “EAE incidence (%)” value ([1]; 30 mg/kg p.o. BID, p<0.05 vs. vehicle) was 50.0%*, the “Clinical score in the EAE model” value ([1]; 7.5, 15 and 30 mg/kg BID) was “dose-dependent decrease” and the “End EAE severity compared to the vehicle control group (FIG. 11)” value ([1]; 15 and 30 mg/kg BID) was “significantly reduced”. The “Maximum EAE severity compared to the vehicle control group (FIG. 11)” value ([1]; 15 and 30 mg/kg BID) was “significantly reduced”, the “Clinical score compared with fingolimod” value ([1]; highest dose employed (30 mg/kg BID) vs fingolimod 0.5 mg/kg QD) was “appeared superior to fingolimod” and the “Reduction in clinical scores (FIG. 12)” value [10] was “greater than 50%”. The “Reduction in histopathological scores (FIG. 13)” value [10] was “greater than 75%”.
